One test concerns the target T1, CK1α (Homo sapiens, UniProt P48729+Q96SW2).
T1 construct: CSNK1A1-HiBit KI HEK293(LgBit) Cells; host or cells: HEK293(LgBit) knock-in cells
Put plainly: HiBiT degradation assay, CK1α, Procedure A. The note with it: six hours incubation. Format: cell-based. The gist of the method:
(§1)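 10-pt dose response, 10–0.005 μM, 0.1% DMSO; cells 1×10^6/ml in DMEM/10% FBS, 6 h, 37° C; HiBiT lytic detection, luminescence; DC50 + Ymin by 4-parameter fit.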

The next test has as its target GSPT1 (Homo sapiens, UniProt P15170+Q96SW2). Description: HiBiT degradation assay, GSPT1, Procedure A. Format: cell-based. The arrangement: HiBit-GSPT1 KI HEK293(LgBit) Cells; host or cells: HEK293(LgBit) knock-in cells. As to conditions: six hours incubation. The gist of the method:
as §1
Background: The HiBiT peptide binds its large partner to form an active luciferase.

The text below walks through data of patent US20240158370A1, “CK1 alpha AND DUAL CK1 alpha / GSPT1 DEGRADING COMPOUNDS” (Innovo Therapeutics, Inc., priority 2022, published 2024).

One may read the DC50 as the midpoint of the concentration-degradation curve.

GSPT1, sequence (P15170 whole entry): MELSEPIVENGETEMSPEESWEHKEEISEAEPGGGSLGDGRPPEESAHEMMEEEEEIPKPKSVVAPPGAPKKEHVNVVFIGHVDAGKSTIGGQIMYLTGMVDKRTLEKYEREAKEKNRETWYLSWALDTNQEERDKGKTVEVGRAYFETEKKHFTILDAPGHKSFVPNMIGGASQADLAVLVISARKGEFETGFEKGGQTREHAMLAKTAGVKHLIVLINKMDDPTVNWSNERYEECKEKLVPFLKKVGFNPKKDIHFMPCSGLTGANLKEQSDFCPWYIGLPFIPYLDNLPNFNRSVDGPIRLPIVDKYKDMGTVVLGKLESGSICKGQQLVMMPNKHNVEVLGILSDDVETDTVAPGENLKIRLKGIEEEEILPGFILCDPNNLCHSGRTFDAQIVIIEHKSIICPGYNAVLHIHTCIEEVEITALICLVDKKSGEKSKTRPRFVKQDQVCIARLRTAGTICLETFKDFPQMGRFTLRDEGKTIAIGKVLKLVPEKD
GSPT1, sequence (Q96SW2 whole entry): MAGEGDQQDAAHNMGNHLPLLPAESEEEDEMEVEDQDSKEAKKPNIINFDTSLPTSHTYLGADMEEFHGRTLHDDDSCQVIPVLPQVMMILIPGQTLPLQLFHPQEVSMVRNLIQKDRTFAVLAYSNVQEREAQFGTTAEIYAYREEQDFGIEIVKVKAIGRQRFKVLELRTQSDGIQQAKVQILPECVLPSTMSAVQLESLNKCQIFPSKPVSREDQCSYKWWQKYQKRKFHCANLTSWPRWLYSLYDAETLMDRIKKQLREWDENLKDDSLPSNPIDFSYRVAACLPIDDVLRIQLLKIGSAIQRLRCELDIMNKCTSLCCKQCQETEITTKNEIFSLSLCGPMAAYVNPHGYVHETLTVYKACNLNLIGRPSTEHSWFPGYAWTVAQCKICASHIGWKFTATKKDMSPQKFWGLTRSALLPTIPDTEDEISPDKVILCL
GSPT1, sequence (Q16531 whole entry partner): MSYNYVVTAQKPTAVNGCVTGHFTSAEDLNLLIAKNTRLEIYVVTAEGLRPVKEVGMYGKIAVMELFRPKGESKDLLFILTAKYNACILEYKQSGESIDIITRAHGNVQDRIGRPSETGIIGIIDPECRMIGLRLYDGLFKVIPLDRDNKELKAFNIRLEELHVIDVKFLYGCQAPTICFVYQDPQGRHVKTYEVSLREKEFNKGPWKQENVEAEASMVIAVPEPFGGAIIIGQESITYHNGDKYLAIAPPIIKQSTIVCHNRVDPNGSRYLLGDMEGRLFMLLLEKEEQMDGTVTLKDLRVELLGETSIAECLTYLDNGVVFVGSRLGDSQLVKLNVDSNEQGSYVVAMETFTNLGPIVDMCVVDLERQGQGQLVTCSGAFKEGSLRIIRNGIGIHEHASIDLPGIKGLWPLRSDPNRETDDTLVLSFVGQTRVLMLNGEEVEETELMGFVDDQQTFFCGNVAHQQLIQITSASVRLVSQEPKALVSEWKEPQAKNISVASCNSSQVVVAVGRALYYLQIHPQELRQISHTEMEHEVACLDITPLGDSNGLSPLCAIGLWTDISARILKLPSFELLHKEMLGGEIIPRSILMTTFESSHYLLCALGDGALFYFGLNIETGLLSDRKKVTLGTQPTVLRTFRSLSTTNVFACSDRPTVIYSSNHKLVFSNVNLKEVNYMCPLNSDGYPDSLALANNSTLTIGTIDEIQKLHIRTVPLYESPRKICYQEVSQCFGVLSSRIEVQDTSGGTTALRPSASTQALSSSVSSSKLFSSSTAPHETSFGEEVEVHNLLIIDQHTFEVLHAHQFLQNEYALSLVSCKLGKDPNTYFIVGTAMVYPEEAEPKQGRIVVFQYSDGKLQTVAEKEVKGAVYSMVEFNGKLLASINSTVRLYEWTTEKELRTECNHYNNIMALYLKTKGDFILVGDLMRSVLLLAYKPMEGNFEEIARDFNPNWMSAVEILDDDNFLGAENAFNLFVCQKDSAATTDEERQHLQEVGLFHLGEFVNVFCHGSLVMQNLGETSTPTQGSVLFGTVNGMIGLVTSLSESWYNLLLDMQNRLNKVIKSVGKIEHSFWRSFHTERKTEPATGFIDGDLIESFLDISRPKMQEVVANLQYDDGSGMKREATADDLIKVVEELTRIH
T1 sequence (P48729 whole entry): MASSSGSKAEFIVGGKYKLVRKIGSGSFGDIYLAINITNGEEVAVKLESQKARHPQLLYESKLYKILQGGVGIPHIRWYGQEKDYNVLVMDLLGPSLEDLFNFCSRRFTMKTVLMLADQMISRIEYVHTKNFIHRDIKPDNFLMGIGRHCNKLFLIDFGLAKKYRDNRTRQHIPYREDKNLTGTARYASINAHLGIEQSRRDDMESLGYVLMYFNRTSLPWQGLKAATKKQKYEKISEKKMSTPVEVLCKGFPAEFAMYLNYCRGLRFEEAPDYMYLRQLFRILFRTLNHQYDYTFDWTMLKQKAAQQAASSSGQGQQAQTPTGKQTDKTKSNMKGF
T1 sequence (Q96SW2 whole entry): as the sequence (Q96SW2 whole entry) above
T1 sequence (Q16531 whole entry partner): as the sequence (Q16531 whole entry partner) above

Regarding `Cn1ncc(-c2ccc3c(c2)CN(C2CCC(=O)NC2=O)C3=O)c1-c1ccc2[nH]ccc2c1` (stereo not drawn) [Example 218], on CK1α, the “CK1α Ymin” value is listed as “D (D = >10- 25% remaining)” and the DC50 is not below 25 nM. Further, at GSPT1, the DC50 was not below 25 nM and the “GSPT1 Ymin” value is recorded as “F (F = >75-100% remaining)”.
Take `Cn1ncc(-c2ccc3c(c2)CN(C2CCC(=O)NC2=O)C3=O)c1-c1cccc(O)c1` (stereo not drawn) [Example 219]: on CK1α, the “CK1α Ymin” value is on record as “C (C = 0-10% remaining)” and the half-maximal degradation concentration (DC50) is less than 25 nM. Further, at GSPT1, the DC50 was not below 25 nM and the “GSPT1 Ymin” value is given as “F (F = >75-100% remaining)”.
In the same order, the values of `Cn1ncc(-c2ccc3c(c2)CN(C2CCC(=O)NC2=O)C3=O)c1-c1ccc(OCCCN2CCOCC2)cc1` (stereo not drawn) [Example 220] are “E (E = >25-75% remaining)”, less than 25 nM, not below 25 nM and “F (F = >75-100% remaining)”.
In the same order, the values of `Cn1ncc(-c2ccc3c(c2)CN(C2CCC(=O)NC2=O)C3=O)c1-c1ccc(S(C)(=O)=O)cc1` (stereo not drawn) [Example 221] are “E (E = >25-75% remaining)”, not below 25 nM, not below 25 nM and “F (F = >75-100% remaining)”.
In the same order, the values of `COc1ccc(-c2c(-c3ccc4c(c3)CN(C3CCC(=O)NC3=O)C4=O)cnn2C)cc1O` (stereo not drawn) [Example 222] are “C (C = 0-10% remaining)”, less than 25 nM, not below 25 nM and “F (F = >75-100% remaining)”.
Turning to `Cn1ncc(-c2ccc3c(c2)CN(C2CCC(=O)NC2=O)C3=O)c1-c1ccc(C#N)cc1F` (stereo not drawn) [Example 225], at CK1α, the “CK1α Ymin” value was “E (E = >25-75% remaining)” and the DC50 was not below 25 nM. On GSPT1, the DC50 was not below 25 nM and the “GSPT1 Ymin” value is on record as “F (F = >75-100% remaining)”.
As to `Cn1cnc(-c2ccc3c(c2)CN(C2CCC(=O)NC2=O)C3=O)c1-c1ccsc1` (stereo not drawn) [Example 226], on CK1α, the “CK1α Ymin” value was “C (C = 0-10% remaining)” and the 50% degradation concentration (DC50) is less than 25 nM. Further, at GSPT1, the DC50 is less than 25 nM and the “GSPT1 Ymin” value is “E (E = >25-75% remaining)”.
With `Cc1ccc(-c2c(-c3ccc4c(c3)CN(C3CCC(=O)NC3=O)C4=O)ncn2C)cc1` (stereo not drawn) [Example 227], at CK1α, the “CK1α Ymin” value is on record as “D (D = >10- 25% remaining)” and the DC50 is less than 25 nM. Besides, on GSPT1, the half-maximal degradation concentration (DC50) is less than 25 nM and the “GSPT1 Ymin” value is “E (E = >25-75% remaining)”.
Turning to `Cn1cnc(-c2ccc3c(c2)CN(C2CCC(=O)NC2=O)C3=O)c1-c1cccc(O)c1` (stereo not drawn) [Example 228], on CK1α, the “CK1α Ymin” value is recorded as “C (C = 0-10% remaining)” and the 50% degradation concentration (DC50) is less than 25 nM. Further, at GSPT1, the DC50 is not below 25 nM and the “GSPT1 Ymin” value is recorded as “D (D = >10- 25% remaining)”.
On to `Cc1ccc(-c2c(-c3ccc4c(c3)CN(C3CCC(=O)NC3=O)C4=O)ncn2C)s1` (stereo not drawn) [Example 229], for which, at CK1α, the “CK1α Ymin” value is recorded as “C (C = 0-10% remaining)” and the 50% degradation concentration (DC50) is less than 25 nM. Further, at GSPT1, the DC50 is less than 25 nM and the “GSPT1 Ymin” value was “E (E = >25-75% remaining)”.
`Cc1csc(-c2c(-c3ccc4c(c3)CN(C3CCC(=O)NC3=O)C4=O)ncn2C)c1` (stereo not drawn) [Example 230]: on CK1α, the “CK1α Ymin” value is on record as “C (C = 0-10% remaining)” and the half-maximal degradation concentration (DC50) is less than 25 nM. Also, at GSPT1, the DC50 was less than 25 nM and the “GSPT1 Ymin” value was “E (E = >25-75% remaining)”.
With `Cc1sccc1-c1c(-c2ccc3c(c2)CN(C2CCC(=O)NC2=O)C3=O)ncn1C` (stereo not drawn) [Example 231], at CK1α, the “CK1α Ymin” value was “D (D = >10- 25% remaining)” and the 50% degradation concentration (DC50) was less than 25 nM. Also, on GSPT1, the half-maximal degradation concentration (DC50) was not below 25 nM and the “GSPT1 Ymin” value was “F (F = >75-100% remaining)”.
On to `Cn1cnc(-c2ccc3c(c2)CN(C2CCC(=O)NC2=O)C3=O)c1-c1cccc(C#N)c1` (stereo not drawn) [Example 232], for which, on CK1α, the “CK1α Ymin” value is “D (D = >10- 25% remaining)” and the 50% degradation concentration (DC50) is less than 25 nM. Besides, at GSPT1, the 50% degradation concentration (DC50) is not below 25 nM and the “GSPT1 Ymin” value was “F (F = >75-100% remaining)”.
As for `Cn1cnc(-c2ccc3c(c2)CN(C2CCC(=O)NC2=O)C3=O)c1-c1ccccc1C#N` (stereo not drawn) [Example 233], at CK1α, the “CK1α Ymin” value is “D (D = >10- 25% remaining)” and the DC50 is less than 25 nM. Besides, on GSPT1, the half-maximal degradation concentration (DC50) was not below 25 nM and the “GSPT1 Ymin” value is on record as “F (F = >75-100% remaining)”.
As to `Cc1ccc(C)c(-c2c(-c3ccc4c(c3)CN(C3CCC(=O)NC3=O)C4=O)ncn2C)c1` (stereo not drawn) [Example 234], on CK1α, the “CK1α Ymin” value is “D (D = >10- 25% remaining)” and the DC50 is less than 25 nM. On GSPT1, the DC50 was not below 25 nM and the “GSPT1 Ymin” value was “F (F = >75-100% remaining)”.
Turning to `COc1ccccc1-c1c(-c2ccc3c(c2)CN(C2CCC(=O)NC2=O)C3=O)ncn1C` (stereo not drawn) [Example 235], on CK1α, the “CK1α Ymin” value was “D (D = >10- 25% remaining)” and the DC50 was less than 25 nM. Besides, on GSPT1, the 50% degradation concentration (DC50) was not below 25 nM and the “GSPT1 Ymin” value is given as “F (F = >75-100% remaining)”.
In the same order, the values of `Cn1cnc(-c2ccc3c(c2)CN(C2CCC(=O)NC2=O)C3=O)c1-c1ccc(CO)cc1` (stereo not drawn) [Example 236] are “C (C = 0-10% remaining)”, less than 25 nM, not below 25 nM and “E (E = >25-75% remaining)”.
In the same order, the values of `Cc1ccc(F)cc1-c1c(-c2ccc3c(c2)CN(C2CCC(=O)NC2=O)C3=O)ncn1C` (stereo not drawn) [Example 237] are “E (E = >25-75% remaining)”, less than 25 nM, not below 25 nM and “F (F = >75-100% remaining)”.
Regarding `Cc1cc(-c2c(-c3ccc4c(c3)CN(C3CCC(=O)NC3=O)C4=O)ncn2C)ccc1F` (stereo not drawn) [Example 238], on CK1α, the “CK1α Ymin” value is “D (D = >10- 25% remaining)” and the DC50 was less than 25 nM. At GSPT1, the DC50 was not below 25 nM and the “GSPT1 Ymin” value is on record as “F (F = >75-100% remaining)”.
In the same order, the values of `Cc1ccc(-c2c(-c3ccc4c(c3)CN(C3CCC(=O)NC3=O)C4=O)ncn2C)c(F)c1` (stereo not drawn) [Example 239] are “C (C = 0-10% remaining)”, less than 25 nM, less than 25 nM and “F (F = >75-100% remaining)”.
In the same order, the values of `Cc1ccc(-c2c(-c3ccc4c(c3)CN(C3CCC(=O)NC3=O)C4=O)ncn2C)cc1F` (stereo not drawn) [Example 240] are “D (D = >10- 25% remaining)”, less than 25 nM, less than 25 nM and “E (E = >25-75% remaining)”.
With `Cc1cc(-c2c(-c3ccc4c(c3)CN(C3CCC(=O)NC3=O)C4=O)ncn2C)c(C)s1` (stereo not drawn) [Example 241], at CK1α, the “CK1α Ymin” value is on record as “D (D = >10- 25% remaining)” and the DC50 is less than 25 nM. At GSPT1, the DC50 is not below 25 nM and the “GSPT1 Ymin” value is “F (F = >75-100% remaining)”.
Consider `Cn1cnc(-c2ccc3c(c2)CN(C2CCC(=O)NC2=O)C3=O)c1-c1cccc(F)c1F` (stereo not drawn) [Example 242], for which, on CK1α, the “CK1α Ymin” value was “D (D = >10- 25% remaining)” and the 50% degradation concentration (DC50) was less than 25 nM. Moreover, on GSPT1, the 50% degradation concentration (DC50) is less than 25 nM and the “GSPT1 Ymin” value is on record as “F (F = >75-100% remaining)”.
As to `Cc1ccc(C#N)cc1-c1c(-c2ccc3c(c2)CN(C2CCC(=O)NC2=O)C3=O)ncn1C` (stereo not drawn) [Example 243], on CK1α, the “CK1α Ymin” value is “E (E = >25-75% remaining)” and the half-maximal degradation concentration (DC50) is not below 25 nM. On GSPT1, the 50% degradation concentration (DC50) is not below 25 nM and the “GSPT1 Ymin” value was “F (F = >75-100% remaining)”.
In the case of `Cc1ccc(-c2c(-c3ccc4c(c3)CN(C3CCC(=O)NC3=O)C4=O)ncn2C)c(C#N)c1` (stereo not drawn) [Example 244], at CK1α, the “CK1α Ymin” value is given as “D (D = >10- 25% remaining)” and the DC50 was less than 25 nM. Further, on GSPT1, the half-maximal degradation concentration (DC50) was not below 25 nM and the “GSPT1 Ymin” value is recorded as “F (F = >75-100% remaining)”.
In the same order, the values of `Cn1cnc(-c2ccc3c(c2)CN(C2CCC(=O)NC2=O)C3=O)c1-c1ccc2c(c1)OCC2` (stereo not drawn) [Example 245] are “E (E = >25-75% remaining)”, less than 25 nM, not below 25 nM and “F (F = >75-100% remaining)”.
In the same order, the values of `CC(C)c1ccc(-c2c(-c3ccc4c(c3)CN(C3CCC(=O)NC3=O)C4=O)ncn2C)cc1` (stereo not drawn) [Example 246] are “E (E = >25-75% remaining)”, less than 25 nM, not below 25 nM and “F (F = >75-100% remaining)”.
Take `Cn1cnc(-c2ccc3c(c2)CN(C2CCC(=O)NC2=O)C3=O)c1-c1cccc(C#N)c1F` (stereo not drawn) [Example 247]: the “CK1α Ymin” value on CK1α is recorded as “E (E = >25-75% remaining)”. The DC50 on CK1α is less than 25 nM; on GSPT1, not below 25 nM.
As for `Cn1cnc(-c2ccc3c(c2)CN(C2CCC(=O)NC2=O)C3=O)c1-c1cccc(C(N)=O)c1` (stereo not drawn) [Example 248], at CK1α, the “CK1α Ymin” value is given as “D (D = >10- 25% remaining)” and the DC50 was not below 25 nM. Moreover, at GSPT1, the DC50 was not below 25 nM and the “GSPT1 Ymin” value was “E (E = >25-75% remaining)”.
Consider `COc1ccc(C)cc1-c1c(-c2ccc3c(c2)CN(C2CCC(=O)NC2=O)C3=O)ncn1C` (stereo not drawn) [Example 249], for which, on CK1α, the “CK1α Ymin” value is “D (D = >10- 25% remaining)” and the 50% degradation concentration (DC50) was less than 25 nM. Also, at GSPT1, the DC50 is not below 25 nM and the “GSPT1 Ymin” value is “F (F = >75-100% remaining)”.
In the same order, the values of `COCc1ccc(-c2c(-c3ccc4c(c3)CN(C3CCC(=O)NC3=O)C4=O)ncn2C)cc1` (stereo not drawn) [Example 250] are “C (C = 0-10% remaining)”, less than 25 nM, less than 25 nM and “E (E = >25-75% remaining)”.
